From patent EP0183129A1, “Quinolonecarboxylic acid derivatives” (KYORIN PHARMACEUTICAL CO., LTD., priority 1984, dated 1986)
Structures can show the parent of a compound that is named as a salt. Where two headings read alike, the source gives them in different places.

Legend:
[1] = system: S. aureus Smith; assay: In vivo antibacterial activity against systemic infection in mice; set-up: species or system mice (ICR-S); settings: Staphylococcus aureus, po, mice (ICR-S), an hour after intraperitoneal infection
Procedure: (§1) Experiment-2 In vivo antibacterial activity against systemic infection in mice (ICR-S)
(§2) The infections were produced by intraperitoneal injection of a suspension of the bacterial culture corresponding to the germ studied. The products were administered orally at an hour after the infection.

[2] = system: S. pneumoniae S-4288; assay: as above; set-up: species or system mice (ICR-S); settings: Streptococcus pneumoniae, S4288; mice (ICR-S); oral, an hour after intraperitoneal infection; challenge dose 7.5 x 10^4 ~ 4.8 x 10^6 cfu/mouse; read-out: ED50 S. pneumoniae S-4288
Procedure: as §1, §2

[3] = Absorption and distribution: concentration in blood and organs after oral administration, bioassay by cup method; assay type: in vivo; settings: rat, rats, fasted, 10 mg/kg oral, Mean ± S.D. (n=5); for concentration at 0.5 h: 1/2 hr after administration; for concentration at 1 h: 1 hr after administration; for concentration at 2 h: 2 hr after administration; for concentration at 4 h: 4 hr after administration; for concentration at 6 h: 6 hr after administration; for concentration at 8 h: 8 hr after administration
[4] = Urinary and bile excretion after oral administration, bioassay by cup method; assay type: in vivo; settings: rat, fasted rats, 10 mg/kg oral, Mean ± S.D. (n=5)
[5] = challenge dose 6.0 x 10^5 cfu/mouse, read-out: ED50 S. aureus Smith
[6] = kidney, read-out: Concentration in organs: Kidney
[7] = liver, read-out: Concentration in organs: Liver
[8] = lung, read-out: Concentration in organs: Lung
[9] = serum, read-out: Concentration in organs: Serum
[10] = bile 0 ~ 3 hr, read-out: Concentration, bile
[11] = bile 0 ~ 3 hr, read-out: Recovery, bile
[12] = bile 0 ~ 6 hr, read-out: Recovery, bile
[13] = bile 0 ~ 24 hr, read-out: Recovery, bile
[14] = bile 3 ~ 6 hr, read-out: Concentration, bile
[15] = bile 6 ~ 24 hr, read-out: Concentration, bile
[16] = urine 0 ~ 3 hr, read-out: Concentration, urine
[17] = urine 0 ~ 3 hr, read-out: Recovery, urine
[18] = urine 0 ~ 6 hr, read-out: Recovery, urine
[19] = urine 0 ~ 24 hr, read-out: Recovery, urine
[20] = urine 3 ~ 6 hr, read-out: Concentration, urine
[21] = urine 6 ~ 24 hr, read-out: Concentration, urine

In the case of `CNCC1CCN(c2c(F)cc3c(=O)c(C(=O)O)cn(C4CC4)c3c2F)C1` (stereo not drawn) [Example 8, 1-Cyclopropyl-6,8-difluoro-1,4-dihydro-7-(3-methylaminomethyl-l-pyrrolidinyl)-4-oxo-3-quinolinecarboxylic acid hydrochloride], the ED50 [1, 5] is reported as 1.1 mg/kg and the ED50 [2] is reported as 16.1 mg/kg.

`CCNCC1CCN(c2c(F)cc3c(=O)c(C(=O)O)cn(CC)c3c2F)C1` (stereo not shown) [Ref.1, 1-Ethyl-7-(3-ethylaminomethyl-1-pyrrolidinyl)-6,8-difluoro-1,4-dihydro-4-oxo-3-quinolinecarboxylic acid, reference compound] showed an ED50 [1, 5] of 5 mg/kg and an ED50 [2] of 62.2 mg/kg.

`CCNCC1CCN(c2c(F)cc3c(=O)c(C(=O)O)cn(C4CC4)c3c2Cl)C1` (stereo not drawn) [Example 13, 8-Chloro-l-cyclorpropyl-6-fluoro-1,4-dihydro-7-(3-ethylaminomethyl-l-pyrrolidinyl)-4-oxo-3-quinolinecarboxylic acid] gave a concentration at 0.5 h [3, 6] of 5630 ± 640 ng/g, a concentration at 1 h [3, 6] of 4700 ± 600 ng/g and a concentration at 2 h [3, 6] of 2810 ± 250 ng/g. The concentration at 4 h [3, 6] was 1470 ± 250 ng/g, the concentration at 6 h [3, 6] was 840 ± 90 ng/g and the concentration at 8 h [3, 6] was 890 ± 400 ng/g. The concentration at 0.5 h [3, 7] was 7780 ± 910 ng/g, the concentration at 1 h [3, 7] was 5710 ± 630 ng/g and the concentration at 2 h [3, 7] was 3140 ± 360 ng/g. For the same compound, the concentration at 4 h [3, 7] was 1340 ± 120 ng/g, the concentration at 6 h [3, 7] was 860 ± 150 ng/g and the concentration at 8 h [3, 7] was 1130 ± 520 ng/g. It also gave a concentration at 0.5 h [3, 8] of 3170 ± 710 ng/g, a concentration at 1 h [3, 8] of 2660 ± 420 ng/g and a concentration at 2 h [3, 8] of 1540 ± 210 ng/g. The concentration at 4 h [3, 8] was 700 ± 80 ng/g, the concentration at 6 h [3, 8] was 420 ± 50 ng/g and the concentration at 8 h [3, 8] was 450 ± 150 ng/g. For the same compound, the concentration at 0.5 h [3, 9] was 1720 ± 370 ng/mL, the concentration at 1 h [3, 9] was 1120 ± 300 ng/mL and the concentration at 2 h [3, 9] was 570 ± 80 ng/mL. For the same compound, the concentration at 4 h [3, 9] was 230 ± 40 ng/mL, the concentration at 6 h [3, 9] was 100 ± 10 ng/mL and the concentration at 8 h [3, 9] was 140 ± 80 ng/mL. The concentration at 3 h [4, 10] was 36400 ± 9900 ng/mL, the dose excreted at 3 h [4, 11] was 4.9 ± 1.5% and the dose excreted at 6 h [4, 12] was 6.9 ± 1.4%. The dose excreted at 24 h [4, 13] was 12.9 ± 4.9%, the concentration at 6 h [4, 14] was 19700 ± 8000 ng/mL and the concentration at 24 h [4, 15] was 11300 ± 8300 ng/mL. For the same compound, the concentration at 3 h [4, 16] was 36100 ± 9200 ng/mL, the dose excreted at 3 h [4, 17] was 2.7 ± 2.1% and the dose excreted at 6 h [4, 18] was 4.8 ± 1.8%. It also gave a dose excreted at 24 h [4, 19] of 7.4 ± 1.5%, a concentration at 6 h [4, 20] of 39400 ± 13300 ng/mL and a concentration at 24 h [4, 21] of 7600 ± 3600 ng/mL. The ED50 [1, 5] was 0.6 mg/kg and the ED50 [2] was 2 mg/kg.

For `CCNCC1CCN(c2c(F)cc3c(=O)c(C(=O)O)cn(C4CC4)c3c2F)C1` (stereo not drawn) [Example 2, l-Cyclopropyl-7-(3-ethylaminomethyl-l-pyrrolidinyl)-6,8-difluoro-l,4-dihydro-4-oxo-3-quinolinecarboxylic acid hydrochloride], the concentration at 0.5 h [3, 6] was 8500 ± 310 ng/g, the concentration at 1 h [3, 6] was 6720 ± 540 ng/g and the concentration at 2 h [3, 6] was 4660 ± 300 ng/g. It also gave a concentration at 4 h [3, 6] of 2620 ± 590 ng/g, a concentration at 6 h [3, 6] of 1860 ± 110 ng/g and a concentration at 8 h [3, 6] of 980 ± 220 ng/g. The concentration at 0.5 h [3, 7] was 9480 ± 440 ng/g, the concentration at 1 h [3, 7] was 6240 ± 530 ng/g and the concentration at 2 h [3, 7] was 4320 ± 430 ng/g. It also gave a concentration at 4 h [3, 7] of 2360 ± 480 ng/g, a concentration at 6 h [3, 7] of 1620 ± 290 ng/g and a concentration at 8 h [3, 7] of 820 ± 190 ng/g. The concentration at 0.5 h [3, 8] was 3840 ± 420 ng/g, the concentration at 1 h [3, 8] was 2940 ± 220 ng/g and the concentration at 2 h [3, 8] was 1920 ± 330 ng/g. The concentration at 4 h [3, 8] was 1120 ± 310 ng/g, the concentration at 6 h [3, 8] was 780 ± 190 ng/g and the concentration at 8 h [3, 8] was 380 ± 80 ng/g. It also gave a concentration at 0.5 h [3, 9] of 1470 ± 190 ng/mL, a concentration at 1 h [3, 9] of 1300 ± 200 ng/mL and a concentration at 2 h [3, 9] of 900 ± 190 ng/mL. The concentration at 4 h [3, 9] was 420 ± 150 ng/mL, the concentration at 6 h [3, 9] was 260 ± 90 ng/mL and the concentration at 8 h [3, 9] was 120 ± 40 ng/mL. It also gave a concentration at 3 h [4, 10] of 17100 ± 10000 ng/mL, a dose excreted at 3 h [4, 11] of 2.4 ± 1.6% and a dose excreted at 6 h [4, 12] of 4.3 ± 2.1%. It also gave a dose excreted at 24 h [4, 13] of 9.7 ± 3.1%, a concentration at 6 h [4, 14] of 16100 ± 6200 ng/mL and a concentration at 24 h [4, 15] of 10100 ± 2300 ng/mL. For the same compound, the concentration at 3 h [4, 16] was 44200 ± 27900 ng/mL, the dose excreted at 3 h [4, 17] was 3.5 ± 2% and the dose excreted at 6 h [4, 18] was 6.7 ± 4.3%. It also gave a dose excreted at 24 h [4, 19] of 13.5 ± 4.6%, a concentration at 6 h [4, 20] of 115000 ± 61000 ng/mL and a concentration at 24 h [4, 21] of 22100 ± 9800 ng/mL. For the same compound, the ED50 ([1]; challenge dose 5.5 x 10^5 cfu/mouse, n=5, read-out: ED50 against S. aureus Smith) was 0.97 mg/kg, the ED50 [1, 5] was 0.9 mg/kg and the ED50 [2] was 4.6 mg/kg.

In the case of `NCC1CCN(c2c(F)cc3c(=O)c(C(=O)O)cn(C4CC4)c3c2Cl)C1` (stereo not drawn) [Example 14, 8-Chloro-l-cyclopropyl-6-fluoro-l,4-dihydro-7-(3-aminomethyl-l-pyrrolidinyl)-4-oxo-3-quinolinecarboxylic acid hydrochloride], the ED50 [2] is reported as 10 mg/kg.

Work on `CNCC1CCN(c2c(F)cc3c(=O)c(C(=O)O)cn(C4CC4)c3c2Cl)C1` (stereo not drawn) [Example 12, 8-Chloro-l-cyclopropyl-6-fluoro-1,4-dihydro-7-(3-methylaminomethyl-1-pyrrolidinyl)-4-oxo-3-quinolinecarboxylic acid hydrochloride] yielded an ED50 [1, 5] of 0.5 mg/kg and an ED50 [2] of 6.5 mg/kg.

Compound `NCC1CCN(c2c(F)cc3c(=O)c(C(=O)O)cn(C4CC4)c3c2F)C1` (stereo not drawn) [Example 1, 7-(3-Aminomethyl-l-pyrrolidinyl)-l-cyclopropyl-6,8-difluoro-1,4-dihydro-4-oxo-3-quinolinecarboxylic acid hydrochloride] has an ED50 ([1]; challenge dose 7 x 10^5 cfu/mouse, n=5, read-out: ED50 against S. aureus Smith) of 0.9 mg/kg.
